Assay results taken from ChEMBL document CHEMBL5325436, “Discovery of ML210-Based glutathione peroxidase 4 (GPX4) degrader inducing ferroptosis of human cancer cells” (Eur J Med Chem, 2023).
pEC50, pIC50: −log10 of the molar value. Values belong to the molecule of their own block, whether it stands above or below them. Active and inactive are the calls of the source. The calls are words filed in the database; no cut-off is given here.

Columns and labels:
[1] = system: HT-1080; experiment: Antiproliferative activity against human HT-1080 cells assessed as reduction in cell viability incubated for 24 hrs by MTT assay; assay type: functional, cell-based; conditions: HT-1080, 24 h
[2] = target: T1, Protein cereblon/Phospholipid hydroperoxide glutathione peroxidase GPX4 (Homo sapiens) (UniProt Q96SW2+P36969); experiment: PROTAC activity at CRBN/GPX4 in human HT-1080 cells assessed as induction of GPX4 degradation at 1 uM incubated for 24 hrs by Western blot analysis relative to control; assay type: cell-based
[3] = target: T1, Protein cereblon/Phospholipid hydroperoxide glutathione peroxidase GPX4 (Homo sapiens); experiment: PROTAC activity at CRBN/GPX4 in human HT-1080 cells assessed as induction of GPX4 degradation at 0.1 uM incubated for 24 hrs by Western blot analysis relative to control; assay type: cell-based
[4] = target: T1, Protein cereblon/Phospholipid hydroperoxide glutathione peroxidase GPX4 (Homo sapiens); experiment: PROTAC activity at CRBN/GPX4 in human HT-1080 cells assessed as induction of GPX4 degradation at 0.1 uM incubated for 12 hrs by Western blot analysis relative to control; assay type: cell-based
[5] = target: T1, Protein cereblon/Phospholipid hydroperoxide glutathione peroxidase GPX4 (Homo sapiens); experiment: (§1) PROTAC activity at CRBN/GPX4 in human HT-1080 cells assessed as induction of GPX4 degradation incubated for 24 hrs by Western blot analysis; assay type: cell-based
[6] = target: Protein cereblon/Phospholipid hydroperoxide glutathione peroxidase GPX4 (Homo sapiens, UniProt P36969+Q96SW2); experiment: as §1; assay type: cell-based
[7] = system: HT-1080; experiment: Antiproliferative activity against human HT-1080 cells assessed as reduction in cell viability at 10 uM incubated for 24 hrs in the presence of liproxstin-1 by MTT assay; assay type: functional, cell-based
[8] = target: T1, Protein cereblon/Phospholipid hydroperoxide glutathione peroxidase GPX4 (Homo sapiens); experiment: PROTAC activity at CRBN/GPX4 in human HT-1080 cells assessed as induction of GPX4 degradation at 0.1 uM preincubated with MG132 and Baf-A1 for 2 hrs followed by compound addition and measured after 12 hrs by Western blot analysis; assay type: cell-based
[9] = target: T1, Protein cereblon/Phospholipid hydroperoxide glutathione peroxidase GPX4 (Homo sapiens); experiment: PROTAC activity at CRBN/GPX4 in human HT-1080 cells assessed as induction of GPX4 degradation at 0.3 uM incubated for 24 hrs by Western blot analysis relative to control; assay type: cell-based
[10] = system: HT-1080; experiment: Induction of ferroptosis in human HT-1080 cells assessed as cell death at 0.3 uM preincubated with liproxstin-1 for 2 hrs followed by compound addition and measured after 12 hrs by fluorescence intensity based flow cytometric analysis; assay type: functional
[11] = Cytotoxicity against HEK293T cells assessed as reduction in cell viability measured after 24 hrs by MTT assay; assay type: toxicity, cell-based, HEK-293T; conditions: human
[12] = target: T1, Protein cereblon/Phospholipid hydroperoxide glutathione peroxidase GPX4 (Homo sapiens); experiment: Potency index, ratio of […] EC50 to test compound EC50 for PROTAC activity at CRBN/GPX4 in human HT-1080 cells; assay type: cell-based
[13] = target: T1, Protein cereblon/Phospholipid hydroperoxide glutathione peroxidase GPX4 (Homo sapiens); experiment: PROTAC activity at CRBN/GPX4 in human HT-1080 cells assessed as induction of GPX4 degradation in the presence of lenalidomide by ligand competition assay; assay type: cell-based
[14] = system: Calu-1; experiment: Antiproliferative activity against human Calu-1 cells assessed as reduction in cell viability incubated for 24 hrs by MTT assay; assay type: functional, cell-based; conditions: Calu-1, 24 h
[15] = system: Mus musculus; experiment: In vivo PROTAC activity at CRBN/GPX4 in human HT-1080 cells xenografted in Balb/c nude mouse assessed as reduction in GPX4 level in tumor at 20 mg/kg,iv administered as single dose by immunoblotting analysis; assay type: functional, organism-based; conditions: time 6-48 hrs, TDE = time-dependent effect
[16] = system: HT-1080; experiment: Induction of ferroptosis in human HT-1080 cells assessed as increase in ROS accumulation at 0.3 uM measured upto 12 hrs by fluorescence intensity based flow cytometric analysis; assay type: functional, cell-based
[17] = target: T1, Protein cereblon/Phospholipid hydroperoxide glutathione peroxidase GPX4 (Homo sapiens); experiment: PROTAC activity at CRBN/GPX4 in human HT-1080 cells assessed as induction of GPX4 degradation at 1 uM by Western blot analysis; assay type: cell-based; conditions: time <= 24.0 hrs, TDE = time-dependent effect
[18] = system: A-375; experiment: Antiproliferative activity against human A-375 cells assessed as reduction in cell viability incubated for 24 hrs by MTT assay; assay type: functional, cell-based; conditions: A-375, 24 h
[19] = target: T1, Protein cereblon/Phospholipid hydroperoxide glutathione peroxidase GPX4 (Homo sapiens); experiment: PROTAC activity at CRBN/GPX4 in human HT-1080 cells assessed as induction of GPX4 degradation in the presence of ML210 by ligand competition assay; assay type: cell-based
[20] = Toxicity in Balb/c nude mouse xenografted with human HT-1080 cells assessed as body weight loss at 5 to 40 mg/kg, iv administered once every two days for 10 days; assay type: organism-based; conditions: in vivo, 240 h, dose 5-40 mg/kg, time 10 day
[21] = Potency index, ratio of test compound IC50 to ML210 IC50 for cytotoxicity against HEK293T cells; assay type: toxicity, cell-based, HEK-293T; conditions: human, read-out: Ratio IC50
[22] = target: T2, Phospholipid hydroperoxide glutathione peroxidase GPX4 (Homo sapiens, UniProt P36969); experiment: Induction of GPX4 degradation in human HT-1080 cells measured after 24 hrs; assay type: cell-based
T2 sequence (P36969 whole entry): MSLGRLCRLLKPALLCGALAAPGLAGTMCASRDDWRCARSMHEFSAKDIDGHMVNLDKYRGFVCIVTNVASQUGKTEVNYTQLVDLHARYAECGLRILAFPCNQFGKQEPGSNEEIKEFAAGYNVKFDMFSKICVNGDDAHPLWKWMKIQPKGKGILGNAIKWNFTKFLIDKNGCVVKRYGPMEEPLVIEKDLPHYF

[23] = Toxicity in Balb/c nude mouse xenografted with human HT-1080 cells assessed as body weight loss at 3 mg/kg, iv administered once every two days for 10 days; assay type: organism-based; conditions: in vivo, 240 h, time 10 day
[24] = target: T3, Phospholipid hydroperoxide glutathione peroxidase GPX4 (Homo sapiens) (UniProt P36969); experiment: Induction of GPX4 degradation in human HT-1080 cells measured after 12 hrs relative to control; assay type: cell-based
T3 sequence (whole entry): T2 sequence (P36969 whole entry)

[25] = target: T3, Phospholipid hydroperoxide glutathione peroxidase GPX4 (Homo sapiens); experiment: Induction of GPX4 degradation in human HT-1080 cells assessed as reduction in GPX4 protein level measured after 6 hrs; assay type: cell-based
[26] = system: HT-1080; experiment: Induction of ferroptosis in human HT-1080 cells assessed as increase in ROS accumulation at 0.3 uM measured at 6 to 12 hrs by fluorescence intensity based flow cytometric analysis; assay type: functional, cell-based; conditions: time 6-12 hrs

Structure (SMILES): Cc1onc(C(=O)N2CCN(C(c3ccc(Cl)cc3)c3ccc(OCC(=O)N4CCC(CN5CCC(CN6CCN(c7cccc8c7C(=O)N(C7CCC(=O)NC7=O)C8=O)CC6)CC5)CC4)cc3)CC2)c1[N+](=O)[O-] (centres undefined)
pIC50 [1]: 6.00
Activity [2]: 30%

Structure (SMILES): Cc1onc(C(=O)N2CCN(C(c3ccc(Cl)cc3)c3ccc(OCC(=O)N4CCN(CCCCCCCCCCCCCCNc5cccc6c5CN(C5CCC(=O)NC5=O)C6=O)CC4)cc3)CC2)c1[N+](=O)[O-] (centres undefined)
Activity [2]: < 5%

Structure (SMILES): Cc1onc(C(=O)N2CCN(C(c3ccc(Cl)cc3)c3ccc(OCC(=O)N4CCC(CN5CCN(CCNc6cccc7c6C(=O)N(C6CCC(=O)NC6=O)C7=O)CC5)CC4)cc3)CC2)c1[N+](=O)[O-] (centres undefined)
Activity [3]: 36%
Activity [2]: > 80%

Structure (SMILES): Cc1onc(C(=O)N2CCN(C(c3ccc(Cl)cc3)c3ccc(OCC(=O)N4CCC(CN5CCC(CN6CCC(Nc7cccc8c7C(=O)N(C7CCC(=O)NC7=O)C8=O)CC6)CC5)CC4)cc3)CC2)c1[N+](=O)[O-] (centres undefined)
pIC50 [1]: 5.92
Activity [2]: 25%

Structure (SMILES): Cc1onc(C(=O)N2CCN(C(c3ccc(Cl)cc3)c3ccc(OCC(=O)N4CCC(CN5CCN(CCCNc6cccc7c6C(=O)N(C6CCC(=O)NC6=O)C7=O)CC5)CC4)cc3)CC2)c1[N+](=O)[O-] (centres undefined)
Activity [4]: > 80%
Activity [3]: 82%
Activity [5]: Dose-Dependent Effect
pEC50 [6]: 7.52
Activity [7]: inactive
Activity [8]: inactive
Activity [9]: 100%
Activity [10]: inactive
IC50 at 24 h [11]: 1100 nM
Ratio EC50 [12]: 22
pIC50 [1]: 7.00
Activity [13]: Active
pIC50 [14]: 6.52
Activity [15]: Tde
Activity [16]: Active
Activity [17]: Tde
pIC50 [18]: 6.70
Activity [19]: Active
Activity [2]: > 78%
Activity [20]: Non-Toxic
selectivity ratio [21]: 5

Structure (SMILES): Cc1onc(C(=O)N2CCN(C(c3ccc(Cl)cc3)c3ccc(OCC(=O)N4CCC(CN5CCN(CCCCCCNc6cccc7c6C(=O)N(C6CCC(=O)NC6=O)C7=O)CC5)CC4)cc3)CC2)c1[N+](=O)[O-] (centres undefined)
Activity [3]: 50%
Activity [2]: > 80%

Structure (SMILES): Cc1onc(C(=O)N2CCN(C(c3ccc(Cl)cc3)c3ccc(OCC(=O)N4CCN(CCCCCCCCNc5cccc6c5CN(C5CCC(=O)NC5=O)C6=O)CC4)cc3)CC2)c1[N+](=O)[O-] (centres undefined)
Activity [2]: 36%

Structure (SMILES): Cc1onc(C(=O)N2CCN(C(c3ccc(Cl)cc3)c3ccc(OCC(=O)N4CCN(CCCCCCCNc5cccc6c5CN(C5CCC(=O)NC5=O)C6=O)CC4)cc3)CC2)c1[N+](=O)[O-] (centres undefined)
Activity [2]: 13%

Structure (SMILES): Cc1onc(C(=O)N2CCN(C(c3ccc(Cl)cc3)c3ccc(OCC(=O)N4CCC(CN5CCN(CCCCNc6cccc7c6C(=O)N(C6CCC(=O)NC6=O)C7=O)CC5)CC4)cc3)CC2)c1[N+](=O)[O-] (centres undefined)
Activity [3]: 42%
Activity [2]: 70%

Structure (SMILES): Cc1onc(C(=O)N2CCN(C(c3ccc(Cl)cc3)c3ccc(OCC(=O)N4CCC(CN5CCN(CCCCCNc6cccc7c6C(=O)N(C6CCC(=O)NC6=O)C7=O)CC5)CC4)cc3)CC2)c1[N+](=O)[O-] (centres undefined)
Activity [3]: 33%
Activity [2]: > 80%

Structure (SMILES): Cc1onc(C(=O)N2CCN(C(c3ccc(Cl)cc3)c3ccc(Cl)cc3)CC2)c1[N+](=O)[O-]
pEC50 [22]: 6.19
IC50 at 24 h [11]: 200 nM
pIC50 [1]: 7.00
Activity [23]: Toxic
pIC50 [14]: 6.05
Activity [24]: > 60%
pIC50 [18]: 6.52
Activity [25]: Active
Activity [26]: inactive

Next, values leading:

Activity [2]: 43%
Structure (SMILES): Cc1onc(C(=O)N2CCN(C(c3ccc(Cl)cc3)c3ccc(OCC(=O)N4CCN(CCCCCCCCCCNc5cccc6c5CN(C5CCC(=O)NC5=O)C6=O)CC4)cc3)CC2)c1[N+](=O)[O-] (centres undefined)

Activity [2]: 32%
Structure (SMILES): Cc1onc(C(=O)N2CCN(C(c3ccc(Cl)cc3)c3ccc(OCC(=O)N4CCN(CCCCCCCCCCCCNc5cccc6c5CN(C5CCC(=O)NC5=O)C6=O)CC4)cc3)CC2)c1[N+](=O)[O-] (centres undefined)

Activity [2]: 36%
Structure (SMILES): Cc1onc(C(=O)N2CCN(C(c3ccc(Cl)cc3)c3ccc(OCC(=O)N4CCN(CCCCCCCCCCCCCNc5cccc6c5CN(C5CCC(=O)NC5=O)C6=O)CC4)cc3)CC2)c1[N+](=O)[O-] (centres undefined)

Activity [2]: 54%
Structure (SMILES): Cc1onc(C(=O)N2CCN(C(c3ccc(Cl)cc3)c3ccc(OCC(=O)N4CCN(CCCCCCCCCCCNc5cccc6c5CN(C5CCC(=O)NC5=O)C6=O)CC4)cc3)CC2)c1[N+](=O)[O-] (centres undefined)

Activity [5]: Dose-Dependent Effect
pEC50 [6]: 6.40
pIC50 [1]: 6.52
Activity [17]: Tde
Activity [2]: 40%
Structure (SMILES): Cc1onc(C(=O)N2CCN(C(c3ccc(Cl)cc3)c3ccc(OCC(=O)N4CCN(CCCCCCCCCNc5cccc6c5CN(C5CCC(=O)NC5=O)C6=O)CC4)cc3)CC2)c1[N+](=O)[O-] (centres undefined)
